Columns and labels:
[1] = Body weight change in synovial sarcoma PDX model (SA13412); format: in vivo, mice; conditions: 50 mg/kg once a day, 25 mg/kg twice a day, 16.6 mg/kg three times a day, FIG. 24
Excerpt: The x axis is treatment measured in days and the y axis is body weight change measured in percentage. Less than 15% loss of body weight was observed on average.

[2] = target: T1, BRD4 (Homo sapiens, UniProt O60885); assay: BRD4 degradation (24 h), HiBiT 293T.92 cells; format: cell-based
T1 construct: endogenously expressing BRD4 with HiBiT fusion tag via CRISPR; endogenous in cells; host or cells: 293T.92 (BRD4-HiBiT), generated in-house, also expressing LgBiT ectopically
Excerpt: (§1) Dulbecco's modified Eagle medium (DMEM) without phenol red and fetal bovine serum (FBS) were purchased from Gibco (Grand Island, N.Y., USA). Nano-Glo® HiBiT Lytic Assay System was purchased from Promega (Madison, Wis., USA). 293T.166 (BRD9-HiBiT) cell line, endogenously expressing BRD9 with HiBiT fusion tag via CRISPR and ectopically expressing LgBiT tag, was purchased from Promega (Madison, Wis., USA). 293T.167 (BRD7-HiBiT) cell line, endogenously expressing BRD7 with HiBiT fusion tag via CRISPR and ectopically expressing LgBiT tag, was purchased from Promega (Madison, Wis., USA). 293T.92 (BRD4-HiBiT) cell line, endogenously expressing BRD4 with HiBiT fusion tag via CRISPR and ectopically expressing LgBiT tag, was generated in-house. Cell culture flasks and 384-well microplates were acquired from VWR (Radnor, Pa., USA).
(§2) BRD9 degradation was determined based on quantification of luminescent signal using Nano-Glo® HiBiT Lytic Assay kit. Test compounds were added to the 384-well plate from a top concentration of 10 μM with 11 points, half log titration in duplicates. 293T.166 cells were added into 384-well plates at a cell density of 10,000 cells per well. […] BRD7 and BRD4 degradation was similarly determined with 293T.167 cells and 293T.92 cells, respectively. […] Luminescence was acquired on EnVision™ Multilabel Reader (PerkinElmer, Santa Clara, Calif., USA).

[3] = target: T2, BRD9 (Homo sapiens, UniProt Q9H8M2); assay: BRD9 degradation kinetics; format: cell-based; set-up: endogenously expressing BRD9 with HiBiT fusion tag via CRISPR; host or cells: 293T.166 (BRD9-HiBiT), also expressing LgBiT ectopically
T2 sequence (Q9H8M2 1-597): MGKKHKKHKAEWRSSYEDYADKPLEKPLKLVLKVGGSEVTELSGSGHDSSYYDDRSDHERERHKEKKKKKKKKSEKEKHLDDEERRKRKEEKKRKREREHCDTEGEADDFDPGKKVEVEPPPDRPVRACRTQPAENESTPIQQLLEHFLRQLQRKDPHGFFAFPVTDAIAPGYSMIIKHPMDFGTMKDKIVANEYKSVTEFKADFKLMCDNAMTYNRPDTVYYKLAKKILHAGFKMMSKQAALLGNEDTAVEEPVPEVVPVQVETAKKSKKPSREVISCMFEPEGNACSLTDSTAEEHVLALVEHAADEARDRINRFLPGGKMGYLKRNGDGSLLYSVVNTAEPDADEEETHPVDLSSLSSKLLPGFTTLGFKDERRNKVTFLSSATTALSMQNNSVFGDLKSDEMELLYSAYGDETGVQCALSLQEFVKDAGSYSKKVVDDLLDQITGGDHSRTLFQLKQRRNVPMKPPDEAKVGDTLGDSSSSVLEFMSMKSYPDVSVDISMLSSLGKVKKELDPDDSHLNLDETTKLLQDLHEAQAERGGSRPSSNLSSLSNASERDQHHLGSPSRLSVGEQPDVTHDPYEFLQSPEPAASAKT

[4] = target: T3, BRD7 (Homo sapiens, UniProt Q9NPI1); assay: BRD7 degradation (24 h), HiBiT 293T.167 cells; format: cell-based
T3 construct: endogenously expressing BRD7 with HiBiT fusion tag via CRISPR; host or cells: 293T.167 (BRD7-HiBiT), also expressing LgBiT ectopically
Excerpt: as §1, §2

[5] = test system: synovial sarcoma xenograft model; assay: Tumor volume in a synovial sarcoma xenograft model (FIG. 1); format: in vivo
[6] = target: BRD9-E3 (Homo sapiens, UniProt Q96SW2+Q9H8M2); assay: BRD9-E3 dimerization; format: biochemical; conditions: not explained
[7] = target: CYP 1A2 (Homo sapiens, UniProt P05177); assay: CYP inhibition 1A2; format: in vitro ADME
[8] = target: CYP 2B6 (Homo sapiens, UniProt P20813); assay: CYP inhibition 2B6; format: in vitro ADME
[9] = target: BRD9 (Mus musculus, UniProt Q3UQU0); assay: BRD9 degradation in mouse cells (24 h); format: cell-based
[10] = target: CYP 3A4 (Homo sapiens, UniProt P08684); assay: CYP inhibition 3A4; format: in vitro ADME
[11] = target: BRD9 (Rattus norvegicus, UniProt D4ACF5); assay: BRD9 degradation in rat cells (24 h); format: cell-based
[12] = target: BRD9 (Canis lupus familiaris, UniProt A0A8I3PU24); assay: BRD9 degradation in dog cells (24 h); format: cell-based
[13] = test system: SA13412; assay: Synovial sarcoma patient derived xenograft (PDX) model (SA13412), tumor volume; format: in vivo, mice; conditions: 40 mg/kg orally once a day, 20 days of treatment
Procedure: The x-axis is days after start of treatment measured in days and the y-axis is tumor volume measured in mm^3. The mice were dosed with 40 mg/kg of Compound 172 orally once a day. […] The x axis is treatment measured in days and the y axis is mean tumor volume+SEM measured in cubic millimeters (mm^3). Compound 176 was dosed at 50 mg/kg once a day, 25 mg/kg twice a day, and 16.6 mg/kg three times a day.

Sequence of BRD9-E3 (Q96SW2 whole entry, one chain of several): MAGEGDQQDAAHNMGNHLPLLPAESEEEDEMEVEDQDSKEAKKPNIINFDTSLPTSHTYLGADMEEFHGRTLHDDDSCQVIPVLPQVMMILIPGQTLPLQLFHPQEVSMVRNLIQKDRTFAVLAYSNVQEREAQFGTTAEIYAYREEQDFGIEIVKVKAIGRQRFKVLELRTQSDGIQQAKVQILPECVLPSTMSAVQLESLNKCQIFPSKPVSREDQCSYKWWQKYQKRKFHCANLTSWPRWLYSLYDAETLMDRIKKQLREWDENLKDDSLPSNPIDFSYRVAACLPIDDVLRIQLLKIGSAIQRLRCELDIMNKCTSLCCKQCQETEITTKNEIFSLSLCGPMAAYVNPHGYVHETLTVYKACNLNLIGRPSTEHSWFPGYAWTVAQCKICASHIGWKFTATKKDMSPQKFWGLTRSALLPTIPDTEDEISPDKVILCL
Sequence of BRD9 (Mus musculus, UniProt Q3UQU0) (Q3UQU0 whole entry): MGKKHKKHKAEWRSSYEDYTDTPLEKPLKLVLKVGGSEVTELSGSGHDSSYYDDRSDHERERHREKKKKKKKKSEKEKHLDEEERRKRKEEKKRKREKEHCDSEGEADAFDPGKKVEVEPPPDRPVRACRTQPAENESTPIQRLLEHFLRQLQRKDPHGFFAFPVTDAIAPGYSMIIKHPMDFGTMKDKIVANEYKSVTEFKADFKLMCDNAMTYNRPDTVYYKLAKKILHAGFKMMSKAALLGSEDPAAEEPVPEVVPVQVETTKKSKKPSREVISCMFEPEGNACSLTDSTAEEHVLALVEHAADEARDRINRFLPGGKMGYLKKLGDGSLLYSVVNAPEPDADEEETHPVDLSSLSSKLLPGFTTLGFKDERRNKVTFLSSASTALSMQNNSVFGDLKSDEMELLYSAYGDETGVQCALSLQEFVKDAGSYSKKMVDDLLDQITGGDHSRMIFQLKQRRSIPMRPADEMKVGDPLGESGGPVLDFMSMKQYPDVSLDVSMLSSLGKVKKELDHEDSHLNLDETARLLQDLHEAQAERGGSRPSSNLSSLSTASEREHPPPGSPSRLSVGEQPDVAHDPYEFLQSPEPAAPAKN
Sequence of BRD9 (Rattus norvegicus, UniProt D4ACF5) (D4ACF5 1-761): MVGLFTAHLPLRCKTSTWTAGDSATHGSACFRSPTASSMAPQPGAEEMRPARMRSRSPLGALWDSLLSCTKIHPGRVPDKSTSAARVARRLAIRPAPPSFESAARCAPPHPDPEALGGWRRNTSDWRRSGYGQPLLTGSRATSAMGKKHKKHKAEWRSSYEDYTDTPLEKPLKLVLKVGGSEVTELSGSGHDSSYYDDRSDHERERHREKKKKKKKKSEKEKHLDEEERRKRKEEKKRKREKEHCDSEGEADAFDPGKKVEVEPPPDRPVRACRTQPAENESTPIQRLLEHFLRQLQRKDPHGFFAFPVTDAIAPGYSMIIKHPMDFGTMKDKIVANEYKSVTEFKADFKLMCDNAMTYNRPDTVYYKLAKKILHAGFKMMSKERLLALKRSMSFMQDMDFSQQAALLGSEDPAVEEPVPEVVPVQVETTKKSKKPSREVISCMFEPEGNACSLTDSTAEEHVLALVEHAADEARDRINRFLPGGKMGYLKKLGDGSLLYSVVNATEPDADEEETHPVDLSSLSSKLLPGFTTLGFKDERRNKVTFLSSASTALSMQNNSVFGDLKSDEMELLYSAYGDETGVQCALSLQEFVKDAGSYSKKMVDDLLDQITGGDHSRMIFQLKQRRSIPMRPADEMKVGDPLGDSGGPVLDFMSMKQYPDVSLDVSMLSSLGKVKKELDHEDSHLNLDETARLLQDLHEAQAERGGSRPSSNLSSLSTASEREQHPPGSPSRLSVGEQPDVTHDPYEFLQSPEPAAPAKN
T3 sequence (Q9NPI1 whole entry, the tested form may be a part): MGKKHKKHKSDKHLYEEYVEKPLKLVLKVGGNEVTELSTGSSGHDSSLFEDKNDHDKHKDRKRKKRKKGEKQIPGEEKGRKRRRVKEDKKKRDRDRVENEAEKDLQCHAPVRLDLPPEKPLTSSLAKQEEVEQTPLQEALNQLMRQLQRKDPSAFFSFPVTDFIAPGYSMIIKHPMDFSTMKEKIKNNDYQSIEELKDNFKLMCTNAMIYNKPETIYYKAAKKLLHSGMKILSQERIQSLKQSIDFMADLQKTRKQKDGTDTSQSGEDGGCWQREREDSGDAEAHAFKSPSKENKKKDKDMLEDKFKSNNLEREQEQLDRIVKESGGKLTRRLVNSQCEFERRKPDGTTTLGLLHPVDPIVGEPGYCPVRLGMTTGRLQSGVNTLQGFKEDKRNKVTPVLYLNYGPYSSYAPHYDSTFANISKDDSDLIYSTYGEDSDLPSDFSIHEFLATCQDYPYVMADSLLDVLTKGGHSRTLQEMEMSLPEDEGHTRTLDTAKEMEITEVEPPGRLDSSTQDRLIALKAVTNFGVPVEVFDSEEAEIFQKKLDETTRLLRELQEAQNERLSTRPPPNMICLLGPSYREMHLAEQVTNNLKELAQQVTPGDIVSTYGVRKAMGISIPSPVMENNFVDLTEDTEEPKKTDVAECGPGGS
Sequence of BRD9 (Canis lupus familiaris, UniProt A0A8I3PU24) (A0A8I3PU24 1-600): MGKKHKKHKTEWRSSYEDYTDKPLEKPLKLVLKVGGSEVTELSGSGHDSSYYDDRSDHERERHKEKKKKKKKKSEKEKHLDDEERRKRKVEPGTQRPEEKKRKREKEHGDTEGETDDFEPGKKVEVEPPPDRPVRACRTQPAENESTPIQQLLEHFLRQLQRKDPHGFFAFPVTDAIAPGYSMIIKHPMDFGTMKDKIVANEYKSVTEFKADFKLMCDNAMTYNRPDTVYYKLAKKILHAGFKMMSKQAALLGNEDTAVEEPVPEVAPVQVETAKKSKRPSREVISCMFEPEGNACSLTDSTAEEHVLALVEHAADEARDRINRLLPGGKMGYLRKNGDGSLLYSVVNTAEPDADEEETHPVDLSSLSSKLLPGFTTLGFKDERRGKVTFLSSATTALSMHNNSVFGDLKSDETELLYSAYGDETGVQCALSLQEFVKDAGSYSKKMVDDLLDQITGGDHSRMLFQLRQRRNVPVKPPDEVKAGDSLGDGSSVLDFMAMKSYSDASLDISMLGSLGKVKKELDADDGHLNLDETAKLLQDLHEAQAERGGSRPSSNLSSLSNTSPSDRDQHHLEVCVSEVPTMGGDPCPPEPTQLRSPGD
Sequence of CYP 1A2 (P05177 whole entry): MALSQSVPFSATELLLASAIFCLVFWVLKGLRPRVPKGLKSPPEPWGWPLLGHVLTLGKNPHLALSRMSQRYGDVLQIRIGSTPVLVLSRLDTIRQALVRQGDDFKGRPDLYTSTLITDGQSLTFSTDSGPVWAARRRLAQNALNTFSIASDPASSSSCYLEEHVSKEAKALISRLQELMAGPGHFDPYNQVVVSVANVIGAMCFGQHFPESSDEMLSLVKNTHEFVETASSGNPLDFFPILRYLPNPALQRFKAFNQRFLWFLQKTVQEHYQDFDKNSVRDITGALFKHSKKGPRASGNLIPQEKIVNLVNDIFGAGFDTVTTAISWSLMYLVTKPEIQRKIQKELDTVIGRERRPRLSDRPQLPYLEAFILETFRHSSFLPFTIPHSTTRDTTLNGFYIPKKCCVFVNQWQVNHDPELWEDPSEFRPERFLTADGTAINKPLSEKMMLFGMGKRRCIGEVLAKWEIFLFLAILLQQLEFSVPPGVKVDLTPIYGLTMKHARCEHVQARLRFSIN
Sequence of CYP 3A4 (P08684 whole entry): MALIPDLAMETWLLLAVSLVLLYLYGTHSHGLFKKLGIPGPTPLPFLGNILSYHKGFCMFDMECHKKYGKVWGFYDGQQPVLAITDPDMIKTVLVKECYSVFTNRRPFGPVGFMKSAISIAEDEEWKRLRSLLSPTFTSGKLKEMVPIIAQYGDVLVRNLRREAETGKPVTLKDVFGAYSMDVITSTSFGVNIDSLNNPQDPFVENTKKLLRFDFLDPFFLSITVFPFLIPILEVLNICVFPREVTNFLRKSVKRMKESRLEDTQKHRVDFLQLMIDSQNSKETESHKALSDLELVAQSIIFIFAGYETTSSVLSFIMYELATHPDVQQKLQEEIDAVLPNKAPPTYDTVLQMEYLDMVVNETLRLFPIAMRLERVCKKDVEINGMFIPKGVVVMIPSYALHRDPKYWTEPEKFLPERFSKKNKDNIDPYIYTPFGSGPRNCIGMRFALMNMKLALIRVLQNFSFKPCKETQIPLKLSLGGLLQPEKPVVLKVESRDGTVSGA
Sequence of CYP 2B6 (P20813 whole entry): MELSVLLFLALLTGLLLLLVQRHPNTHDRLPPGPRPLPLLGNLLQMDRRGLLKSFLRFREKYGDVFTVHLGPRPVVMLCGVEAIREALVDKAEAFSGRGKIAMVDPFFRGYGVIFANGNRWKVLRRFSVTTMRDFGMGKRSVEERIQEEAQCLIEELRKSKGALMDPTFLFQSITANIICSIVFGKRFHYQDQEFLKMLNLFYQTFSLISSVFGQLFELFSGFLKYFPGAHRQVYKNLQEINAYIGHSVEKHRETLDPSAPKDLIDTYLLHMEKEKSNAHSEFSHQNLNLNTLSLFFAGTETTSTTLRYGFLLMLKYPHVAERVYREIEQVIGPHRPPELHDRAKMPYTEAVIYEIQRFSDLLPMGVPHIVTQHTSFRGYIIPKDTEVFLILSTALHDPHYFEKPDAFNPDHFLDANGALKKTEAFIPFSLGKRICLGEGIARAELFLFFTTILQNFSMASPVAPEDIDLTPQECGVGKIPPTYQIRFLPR

COc1cc(-c2cn(C)c(=O)c(C)c2C)cc(OC)c1CN1CCC(N2CCN(c3ccc(NC4CCC(=O)NC4=O)cc3F)CC2)C(F)(F)C1 (single isomer, unassigned) [Compound 176, 3-[4-[4-[1-[[2,6-dimethoxy-4-(1,4,5-trimethyl-6-oxo-3-pyridyl)phenyl]methyl]-3,3-difluoro-4-piperidyl]piperazin-1-yl]-3-fluoro-anilino]piperidine-2,6-dione]
loss of body weight on average [1]: Less than 15%

COc1cc(-c2cn(C)c(=O)c(C)c2C)cc(OC)c1CN1CCC(N2CCN(c3ccc(NC4CCC(=O)NC4=O)cc3F)CC2)C(F)(F)C1 (stereo not shown) [Compound 172, 3-[4-[4-[1-[[2,6-dimethoxy-4-(1,4,5-trimethyl-6-oxo-3-pyridyl)phenyl]methyl]-3,3-difluoro-4-piperidyl]piperazin-1-yl]-3-fluoro-anilino]piperidine-2,6-dione]
Emax [2]: 81% | DC50 ([2]; 24 h, read-out: BRD4 degradation (24 h), IP): 2 µM | BRD9 Degradation kinetics, first value ([3]; first of three values, not explained): 11 nM | BRD9 Degradation kinetics, second value ([3]; second of three values, not explained): > 832 nM | BRD9 Degradation kinetics, third value (rate) ([3]; third of three values): 1.81 h⁻¹ | Emax [4]: 100% | DC50 ([4]; 24 h, read-out: BRD7 degradation (24 h), IP): > 9.99 µM | tumor volume after treatment [5]: strong effect | BRD9-E3 dimerization, first value ([6]; first of three values): 120 nM | BRD9-E3 dimerization, second value ([6]; second of three values): 461 nM | BRD9-E3 dimerization, third value ([6]; third of three values): 13% | IC50 [7]: 30 µM | IC50 [8]: 0.1 µM | BRD9 degradation mouse cells (24 h), percent [9]: 36% | DC50 ([9]; read-out: BRD9 degradation mouse cells (24 h), concentration): 0.099 µM | IC50 [10]: 18.2 µM | BRD9 degradation rat cells (24 h), percent [11]: 53% | DC50 ([11]; read-out: BRD9 degradation rat cells (24 h), concentration): 1 µM | BRD9 degradation dog cells (24 h), percent [12]: 36.4% | DC50 ([12]; read-out: BRD9 degradation dog cells (24 h), concentration): 0.099 µM | tumor volume, PDX model (SA13412) [13]: no appreciable tumor growth
